These are literature values, as cited in patent publication US12436146B2, “Cell-based assay for quantifying the potency and efficacy of cannabinoids and/or terpenoids, and methods of use thereof” (priority 2017, dated 2025).

Each structure is given as a SMILES string.

For data set [1], the target named is T1, CB1 (Homo sapiens, UniProt P21554).
For data set [2], the target named is T1, CB1. The conditions noted are these: read-out: CB1 affinity (Ki).
In data set [3] the target is T2, CB2 (Homo sapiens, UniProt P34972). The conditions noted are these: read-out: CB2 affinity (Ki).
Data set [4] concerns the target T2, CB2.

T1 sequence (P21554 whole entry): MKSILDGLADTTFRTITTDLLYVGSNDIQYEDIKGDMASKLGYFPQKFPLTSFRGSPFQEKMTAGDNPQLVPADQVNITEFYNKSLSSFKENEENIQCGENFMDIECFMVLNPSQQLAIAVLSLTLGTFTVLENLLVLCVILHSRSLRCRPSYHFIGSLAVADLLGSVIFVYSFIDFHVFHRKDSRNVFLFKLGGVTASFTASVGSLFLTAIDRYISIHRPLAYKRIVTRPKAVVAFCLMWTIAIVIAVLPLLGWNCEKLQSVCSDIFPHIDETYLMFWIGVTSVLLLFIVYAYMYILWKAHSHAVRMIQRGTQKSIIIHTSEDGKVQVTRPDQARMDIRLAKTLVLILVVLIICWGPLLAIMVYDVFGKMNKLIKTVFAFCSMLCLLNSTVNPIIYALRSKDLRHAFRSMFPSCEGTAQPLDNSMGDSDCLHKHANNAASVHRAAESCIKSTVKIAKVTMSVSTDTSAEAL
T2 sequence (P34972 whole entry): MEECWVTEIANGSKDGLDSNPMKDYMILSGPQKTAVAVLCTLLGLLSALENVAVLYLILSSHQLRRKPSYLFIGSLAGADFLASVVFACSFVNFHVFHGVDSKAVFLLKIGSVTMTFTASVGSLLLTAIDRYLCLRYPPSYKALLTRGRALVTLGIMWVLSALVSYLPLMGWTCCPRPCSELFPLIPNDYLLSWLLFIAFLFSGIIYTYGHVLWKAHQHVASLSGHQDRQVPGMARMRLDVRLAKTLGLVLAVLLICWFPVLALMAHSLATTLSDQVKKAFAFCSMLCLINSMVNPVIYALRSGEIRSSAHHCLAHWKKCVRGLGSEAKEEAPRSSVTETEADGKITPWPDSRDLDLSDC

Take `CCCCC/C=C\C/C=C\C/C=C\C/C=C\CCCC(=O)OC(CO)CO` [2-Arachidonoylglycerol]: the “Efficacy towards CB1” value on CB1 [1] is listed as “Full agonist”.
For orientation: Ki means the equilibrium dissociation constant of an inhibitor or competing ligand from its target. With `CCCCC/C=C\C/C=C\C/C=C\C/C=C\CCCCOC(CO)CO` [2-Arachidonyl glyceryl ether], the Ki at CB1 [2] is 21 nM; at CB2 [3], 480 nM. Further, the “Efficacy towards CB1” value at CB1 [1] was “Full agonist”. Besides, the “Efficacy towards CB2” value at CB2 [4] is on record as “Full agonist”.
For `Cc1c(C(=O)c2cccc3ccccc23)c2ccc([N+](=O)[O-])cc2n1CC1CCCCN1C` (stereo not shown) [AM-1221], the Ki on CB1 [2] is 52.3 nM; on CB2 [3] it was 0.28 nM. Moreover, at CB1 [1], the “Efficacy towards CB1” value was “Agonist”. Moreover, the “Efficacy towards CB2” value at CB2 [4] is “Agonist”.
With `O=C(c1cccc2ccccc12)c1cn(CCCCCF)c2cc([N+](=O)[O-])ccc12` [AM-1235], the results for the Ki on CB1 [2] and at CB2 [3] were 1.5 nM and 20.4 nM, respectively. Besides, the “Efficacy towards CB1” value on CB1 [1] is “Agonist”. Besides, at CB2 [4], the “Efficacy towards CB2” value is recorded as “Agonist”.
Turning to `N#CCCCCn1cc(C(=O)c2cccc3ccccc23)c2ccccc21` [AM-2232], the Ki on CB1 [2] is 0.28 nM; at CB2 [3], 1.48 nM. Moreover, the “Efficacy towards CB1” value on CB1 [1] is reported as “Agonist”. Besides, at CB2 [4], the “Efficacy towards CB2” value is “Agonist”.
On to `O=C(O[C@@H]1Cc2c(O)cc(O)cc2O[C@@H]1c1cc(O)c(O)c(O)c1)c1cc(O)c(O)c(O)c1` [EGCG], for which the inhibition constant (Ki) was 33600 nM at CB1 [2] and greater than 50000 nM at CB2 [3]. For the same compound, the “Efficacy towards CB1” value at CB1 [1] is “Agonist”.
In the case of `CCCCCn1c(C)c(C(=O)c2cccc3ccccc23)c2ccccc21` [JWH-007], the Ki on CB1 [2] was 9 nM; at CB2 [3] it was 2.94 nM. The “Efficacy towards CB1” value at CB1 [1] is on record as “Agonist”. Moreover, on CB2 [4], the “Efficacy towards CB2” value was “Agonist”.
`CCCCCn1cc(C(=O)c2cccc3ccccc23)c2ccccc21` [JWH-018]: the inhibition constant Ki at CB1 [2] was 9 ± 5 nM; on CB2 [3], 2.94 ± 2.65 nM. The “Efficacy towards CB1” value on CB1 [1] is listed as “Full agonist”. Further, at CB2 [4], the “Efficacy towards CB2” value is on record as “Full agonist”.
As for `CCCCC/C=C\C/C=C\C/C=C\C/C=C\CCCC(=O)NCCc1ccc(O)c(O)c1` [N-Arachidonoyl dopamine], the “Efficacy towards CB1” value on CB1 [1] is listed as “Agonist”.
Turning to `CCCCCn1cc(C(=O)C2C(C)(C)C2(C)C)c2ccccc21` [UR-144], the values for the Ki at CB1 [2] and at CB2 [3] were 150 nM and 1.8 nM, respectively. For the same compound, the “Efficacy towards CB1” value at CB1 [1] is “Full agonist”. Further, on CB2 [4], the “Efficacy towards CB2” value is “Full agonist”.
For `COc1ccc(/C=C/c2cc(OC)cc(=O)o2)cc1` [Yangonin], the Ki at CB2 [3] was greater than 10000 nM.
